{
  "source": "ChEMBL document CHEMBL1157046",
  "about": "“QSAR modeling of taxane analogues against colon cancer” (Eur J Med Chem, 2010)",
  "data": [
    {"tested_on": "HT-29", "assay": "Cytotoxicity against human HT-29 cells", "assay_type": "functional, cell-based", "settings": "not given", "units": {"IC50": "pM"}, "values": [
      {"smiles": "CC(=O)O[C@@]12CO[C@@H]1C[C@H](O)[C@@]1(C)C(=O)[C@H](O)C3=C(C)[C@@H](OC(=O)[C@H](O)[C@@H](NC(=O)OC(C)(C)C)C(F)(F)F)C[C@@](O)([C@@H](OC(=O)c4cccc(N=[N+]=[N-])c4)[C@H]21)C3(C)C", "IC50": 708},
      {"smiles": "CCC[C@H](NC(=O)C(C)(C)C)[C@@H](O)C(=O)O[C@@H]1C(C)=C2[C@@H](OC(C)=O)C(=O)[C@@]3(C)[C@H]([C@H](OC(=O)c4ccccc4)[C@@]4(OC(=O)O[C@@H]14)C2(C)C)[C@]1(OC(C)=O)CO[C@@H]1C[C@@H]3O", "IC50": 4790},
      {"smiles": "C/C=C/C(=O)O[C@H]1C(=O)[C@@]2(C)[C@H]([C@H](OC(=O)c3ccccc3)[C@]34OC(=O)O[C@H]3[C@H](OC(=O)[C@H](O)[C@H](C=C(C)C)NC(=O)CCCCC)C(C)=C1C4(C)C)[C@]1(OC(C)=O)CO[C@@H]1C[C@@H]2O", "IC50": 28200},
      {"smiles": "CC(=O)O[C@@H]1C2=C(C)[C@@H](OC(=O)[C@H](O)[C@@H](NC(=O)OCc3ccccc3)c3ccccc3)C[C@@](O)([C@@H](OC(=O)c3ccccc3)[C@@H]3[C@]4(OC(C)=O)CO[C@@H]4C[C@H](O)[C@@]3(C)[C@H]1O)C2(C)C", "IC50": 13.5},
      {"smiles": "CCCCCC(=O)N[C@@H](C=C(C)C)[C@@H](O)C(=O)O[C@@H]1C(C)=C2[C@@H](OC(=O)N(C)C)C(=O)[C@@]3(C)[C@H]([C@H](OC(=O)c4ccccc4)[C@@]4(OC(=O)O[C@@H]14)C2(C)C)[C@]1(OC(C)=O)CO[C@@H]1C[C@@H]3O", "IC50": 5130},
      {"smiles": "CC(=O)N[C@@H](c1ccccc1)[C@@H](O)C(=O)O[C@H]1C[C@@]2(O)[C@@H](OC(=O)c3ccccc3)[C@@H]3[C@]4(OC(C)=O)CO[C@@H]4C[C@H](O)[C@@]3(C)[C@@H](O)[C@H](OC(C)=O)C(=C1C)C2(C)C", "IC50": 339},
      {"smiles": "CCC(=O)O[C@H]1C(=O)[C@@]2(C)[C@H]([C@H](OC(=O)c3cccc(N=[N+]=[N-])c3)[C@]3(O)C[C@H](OC(=O)[C@H](O)[C@@H](CC(=O)OC(C)(C)C)C(F)(F)F)C(C)=C1C3(C)C)[C@]1(OC(C)=O)CO[C@@H]1C[C@@H]2O", "IC50": 398},
      {"smiles": "CCC[C@H](NC(=O)C(C)(C)C)[C@@H](O)C(=O)O[C@@H]1C(C)=C2[C@@H](O)C(=O)[C@@]3(C)[C@H]([C@H](OC(=O)c4ccccc4)[C@@]4(OC(=O)O[C@@H]14)C2(C)C)[C@]1(OC(C)=O)CO[C@@H]1C[C@@H]3O", "IC50": 3800},
      {"smiles": "C/C=C/[C@H](NC(=O)C(C)(C)C)[C@@H](O)C(=O)O[C@@H]1C(C)=C2[C@@H](O)C(=O)[C@@]3(C)[C@H]([C@H](OC(=O)c4ccccc4)[C@@]4(OC(=O)O[C@@H]14)C2(C)C)[C@]1(OC(C)=O)CO[C@@H]1C[C@@H]3O", "IC50": 1910},
      {"smiles": "C/C=C/[C@H](NC(=O)C(C)(C)C)[C@@H](O)C(=O)O[C@@H]1C(C)=C2[C@@H](OC(C)=O)C(=O)[C@@]3(C)[C@H]([C@H](OC(=O)c4ccccc4)[C@@]4(OC(=O)O[C@@H]14)C2(C)C)[C@]1(OC(C)=O)CO[C@@H]1C[C@@H]3O", "IC50": 3020},
      {"smiles": "CC(=O)O[C@@H]1C2=C(C)[C@@H](OC(=O)[C@H](O)[C@@H](NC(=O)CC(C)(C)C)c3ccccc3)C[C@@](O)([C@@H](OC(=O)c3ccccc3)[C@@H]3[C@]4(OC(C)=O)CO[C@@H]4C[C@H](O)[C@@]3(C)[C@H]1O)C2(C)C", "IC50": 10.5},
      {"smiles": "CC(=O)O[C@@H]1C2=C(C)[C@@H](OC(=O)[C@H](O)[C@@H](NC(=O)NC(C)(C)C)c3ccccc3)C[C@@](O)([C@@H](OC(=O)c3ccccc3)[C@@H]3[C@]4(OC(C)=O)CO[C@@H]4C[C@H](O)[C@@]3(C)[C@H]1O)C2(C)C", "IC50": 6.61},
      {"smiles": "CC(=O)O[C@@H]1C2=C(C)[C@@H](OC(=O)[C@H](O)[C@@H](NC(=O)OCC(C)C)c3ccccc3)C[C@@](O)([C@@H](OC(=O)c3ccccc3)[C@@H]3[C@]4(OC(C)=O)CO[C@@H]4C[C@H](O)[C@@]3(C)[C@H]1O)C2(C)C", "IC50": 2.69},
      {"smiles": "CCC(C)(C)OC(=O)N[C@@H](c1ccccc1)[C@@H](O)C(=O)O[C@H]1C[C@@]2(O)[C@@H](OC(=O)c3ccccc3)[C@@H]3[C@]4(OC(C)=O)CO[C@@H]4C[C@H](O)[C@@]3(C)[C@@H](O)[C@H](OC(C)=O)C(=C1C)C2(C)C", "IC50": 0.776},
      {"smiles": "CC(=O)O[C@H]1C(=O)[C@@]2(C)[C@H]([C@H](OC(=O)c3ccccc3)[C@]34OC(=O)O[C@H]3[C@H](OC(=O)[C@H](O)[C@H](C=C(C)C)NC(=O)C(C)(C)C)C(C)=C1C4(C)C)[C@]1(OC(C)=O)CO[C@@H]1C[C@@H]2O", "IC50": 2400},
      {"smiles": "CCCCCC(=O)N[C@@H](C=C(C)C)[C@@H](O)C(=O)O[C@@H]1C(C)=C2[C@@H](OC(=O)C3CC3)C(=O)[C@@]3(C)[C@H]([C@H](OC(=O)c4ccccc4)[C@@]4(OC(=O)O[C@@H]14)C2(C)C)[C@]1(OC(C)=O)CO[C@@H]1C[C@@H]3O", "IC50": 15800},
      {"smiles": "CCOC(=O)N[C@@H](c1ccccc1)[C@@H](O)C(=O)O[C@H]1C[C@@]2(O)[C@@H](OC(=O)c3ccccc3)[C@@H]3[C@]4(OC(C)=O)CO[C@@H]4C[C@H](O)[C@@]3(C)[C@@H](O)[C@H](OC(C)=O)C(=C1C)C2(C)C", "IC50": 6.03},
      {"smiles": "CC(=O)O[C@H]1C(=O)[C@@]2(C)[C@H]([C@H](OC(=O)c3ccccc3)[C@]34OC(=O)O[C@H]3[C@H](OC(=O)[C@H](O)[C@H](CC(C)C)NC(=O)C(C)(C)C)C(C)=C1C4(C)C)[C@]1(OC(C)=O)CO[C@@H]1C[C@@H]2O", "IC50": 1510},
      {"smiles": "CC(=O)O[C@@H]1C2=C(C)[C@@H](OC(=O)[C@H](O)[C@@H](NC(=O)OCC(C)(C)C)c3ccccc3)C[C@@](O)([C@@H](OC(=O)c3ccccc3)[C@@H]3[C@]4(OC(C)=O)CO[C@@H]4C[C@H](O)[C@@]3(C)[C@H]1O)C2(C)C", "IC50": 1.74},
      {"smiles": "CC(=O)O[C@@]12CO[C@@H]1C[C@H](O)[C@@]1(C)C(=O)[C@H](O)C3=C(C)[C@@H](OC(=O)[C@H](O)[C@H](C=C(C)C)NC(=O)C(C)(C)C)[C@@H]4OC(=O)O[C@]4([C@@H](OC(=O)c4ccccc4)[C@H]21)C3(C)C", "IC50": 501},
      {"smiles": "CC(=O)O[C@@H]1C2=C(C)[C@@H](OC(=O)[C@H](O)[C@@H](NC(=O)OC(C)C)c3ccccc3)C[C@@](O)([C@@H](OC(=O)c3ccccc3)[C@@H]3[C@]4(OC(C)=O)CO[C@@H]4C[C@H](O)[C@@]3(C)[C@H]1O)C2(C)C", "IC50": 0.955},
      {"smiles": "CCC(=O)O[C@H]1C(=O)[C@@]2(C)[C@H]([C@H](OC(=O)c3ccccc3)[C@]34OC(=O)O[C@H]3[C@H](OC(=O)[C@H](O)[C@H](C=C(C)C)NC(=O)C(C)(C)C)C(C)=C1C4(C)C)[C@]1(OC(C)=O)CO[C@@H]1C[C@@H]2O", "IC50": 603},
      {"smiles": "CC(=O)O[C@@]12CO[C@@H]1C[C@H](O)[C@@]1(C)C(=O)[C@H](O)C3=C(C)[C@@H](OC(=O)[C@H](O)[C@@H](NC(=O)C(C)(C)C)c4ccco4)[C@@H]4OC(=O)O[C@]4([C@@H](OC(=O)c4ccccc4)[C@H]21)C3(C)C", "IC50": 603},
      {"smiles": "CC(=O)O[C@H]1C(=O)[C@@]2(C)[C@H]([C@H](OC(=O)c3ccccc3)[C@]34OC(=O)O[C@H]3[C@H](OC(=O)[C@H](O)[C@@H](NC(=O)C(C)(C)C)c3ccco3)C(C)=C1C4(C)C)[C@]1(OC(C)=O)CO[C@@H]1C[C@@H]2O", "IC50": 603},
      {"smiles": "COC(=O)O[C@H]1C(=O)[C@@]2(C)[C@H]([C@H](OC(=O)c3ccccc3)[C@]34OC(=O)O[C@H]3[C@H](OC(=O)[C@H](O)[C@H](C=C(C)C)NC(=O)C(C)(C)C)C(C)=C1C4(C)C)[C@]1(OC(C)=O)CO[C@@H]1C[C@@H]2O", "IC50": 708},
      {"smiles": "CC(=O)O[C@@]12CO[C@@H]1C[C@H](O)[C@@]1(C)C(=O)[C@H](OC(=O)N(C)C)C3=C(C)[C@@H](OC(=O)[C@H](O)[C@H](C=C(C)C)NC(=O)C(C)(C)C)[C@@H]4OC(=O)O[C@]4([C@@H](OC(=O)c4ccccc4)[C@H]21)C3(C)C", "IC50": 1200},
      {"smiles": "CC(=O)O[C@@]12CO[C@@H]1C[C@H](O)[C@@]1(C)C(=O)[C@H](O)C3=C(C)[C@@H](OC(=O)[C@H](O)[C@H](CC(C)C)NC(=O)C(C)(C)C)[C@@H]4OC(=O)O[C@]4([C@@H](OC(=O)c4ccccc4)[C@H]21)C3(C)C", "IC50": 4170},
      {"smiles": "CC(=O)O[C@@]12CO[C@@H]1C[C@H](O)[C@@]1(C)C(=O)[C@H](OC(=O)C3CC3)C3=C(C)[C@@H](OC(=O)[C@H](O)[C@H](C=C(C)C)NC(=O)C(C)(C)C)[C@@H]4OC(=O)O[C@]4([C@@H](OC(=O)c4ccccc4)[C@H]21)C3(C)C", "IC50": 1000},
      {"smiles": "CC(=O)O[C@@H]1C2=C(C)[C@@H](OC(=O)[C@H](O)[C@@H](NC(=O)OC(C)(C)C)c3ccccc3)C[C@@](O)([C@@H](OC(=O)c3ccccc3)[C@@H]3[C@]4(OC(C)=O)CO[C@@H]4C[C@H](O)[C@@]3(C)[C@H]1O)C2(C)C", "IC50": 0.186},
      {"smiles": "CC(=O)O[C@@H]1C2=C(C)[C@@H](OC(=O)[C@H](O)[C@@H](NC(=O)c3ccc(C)cc3)c3ccccc3)C[C@@](O)([C@@H](OC(=O)c3ccccc3)[C@@H]3[C@]4(OC(C)=O)CO[C@@H]4C[C@H](O)[C@@]3(C)[C@H]1O)C2(C)C", "IC50": 13.8},
      {"smiles": "C/C=C/C(=O)O[C@H]1C(=O)[C@@]2(C)[C@H]([C@H](OC(=O)c3ccccc3)[C@]34OC(=O)O[C@H]3[C@H](OC(=O)[C@H](O)[C@H](C=C(C)C)NC(=O)C(C)(C)C)C(C)=C1C4(C)C)[C@]1(OC(C)=O)CO[C@@H]1C[C@@H]2O", "IC50": 1510}
    ]},
    {"tested_on": "HCT-116", "assay": "Cytotoxicity against human HCT116 cells after 72 hrs", "assay_type": "functional, cell-based", "settings": "HCT-116, 72 h", "units": {"IC50": "pM"}, "values": [
      {"smiles": "CCC(=O)O[C@@]12CO[C@@H]1C[C@H](O)[C@@]1(C)C(=O)[C@H](OC(C)=O)C3=C(C)[C@@H](OC(=O)[C@H](O)[C@@H](NC(=O)c4ccccc4)c4ccccc4)C[C@@](O)([C@@H](OC(=O)c4ccccc4)[C@H]21)C3(C)C", "IC50": 2000},
      {"smiles": "CCOC(=O)O[C@@]12CO[C@@H]1C[C@H](O)[C@@]1(C)C(=O)[C@H](OC(C)=O)C3=C(C)[C@@H](OC(=O)[C@H](O)[C@@H](NC(=O)c4ccccc4)c4ccccc4)C[C@@](O)([C@@H](OC(=O)c4ccccc4)[C@H]21)C3(C)C", "IC50": 1000},
      {"smiles": "CCCCC(=O)O[C@@]12CO[C@@H]1C[C@H](O)[C@@]1(C)C(=O)[C@H](OC(C)=O)C3=C(C)[C@@H](OC(=O)[C@H](O)[C@@H](NC(=O)c4ccccc4)c4ccccc4)C[C@@](O)([C@@H](OC(=O)c4ccccc4)[C@H]21)C3(C)C", "IC50": 2000},
      {"smiles": "C=C(C)C(=O)O[C@@]12CO[C@@H]1C[C@H](O)[C@@]1(C)C(=O)[C@H](OC(C)=O)C3=C(C)[C@@H](OC(=O)[C@H](O)[C@@H](NC(=O)c4ccccc4)c4ccccc4)C[C@@](O)([C@@H](OC(=O)c4ccccc4)[C@H]21)C3(C)C", "IC50": 4470}
    ]}
  ]
}
